Data: patent US12076301B2, “Engaging the cervical spinal cord circuitry to re-enable volitional control of hand function in tetraplegic subjects” (The Regents of the University of California, priority 2013, dated 2024)

Tested on: subjects with a chronic motor complete cervical injury
Assay: Maximal handgrip strength (handgrip force measurement device) in tetraplegic subjects during pcEmc with oral buspirone
Type: in vivo, human
Description: Six subjects with chronic (18-36 months) spinal cord injury (SCI, traumatic cervical injury, ASIA B with no motor strength below the injury) were tested to determine if hand function can be improved by neuromodulating the cervical spinal cord. All subjects initially had minimal hand strength, a condition reflecting the majority of cervical SCI patients. Our experimental approach began with 6 weeks of baseline testing (Phase 1), followed by three 2-week treatment periods (Phases 2-4), and then by a period of approximately three months without any treatment at the end of which there was a final 2-week testing period (Phase 5). pcEmc at the C5 spinal segment (Phase 2) increased hand strength in 4/6 subjects compared to baseline Phase 1 (FIG. 1, panels A-G). […]
Voluntary motor control data were assessed using a handgrip force measurement device. […] The number of completed contraction-release sequences across the lines was determined. […] The percentage of data points that fell inside a circular window at a sampling of 15 Hz was determined. […]
The transcutaneous stimulation device is non-invasive. […] Varying combinations of these stimulation parameters were systematically assessed to obtain optimum facilitation of voluntary hand contraction by identification of the relative activation levels of the motor pools studied (data not shown). […]

O=C1CC2(CCCC2)CC(=O)N1CCCCN1CCN(c2ncccn2)CC1 [buspirone]
Mean hand strength increase (after pcEmc plus fEmc (buspirone) treatment, 6 subjects, 7.5 mg buspirone twice daily for 2 weeks, oral): greater than 300% | Subjects with increased hand strength compared to Phase 1 and 2 (during buspirone treatment (Phase 3) with pcEmc at C5, number of subjects out of 6): 4/6
